Results reported in ChEMBL document CHEMBL4033742, “Novel 3-fluoro-6-methoxyquinoline derivatives as inhibitors of bacterial DNA gyrase and topoisomerase IV” (Bioorg Med Chem Lett, 2017).
Values after ≈ are worked out from the molar mass of the structure shown. Blank lines part the entries; values can stand above or below the molecule they belong to.

Columns and labels:
[1] = biological target: Voltage-gated inwardly rectifying potassium channel KCNH2 (Homo sapiens, UniProt Q12809); assay: Inhibition of human ERG
[2] = test system: Staphylococcus aureus; assay: Antibacterial activity against Staphylococcus aureus containing DNA gyrase D83N mutations; type: functional
[3] = test system: Staphylococcus aureus; assay: Antibacterial activity against Staphylococcus aureus containing DNA gyrase M121K mutations; type: functional
[4] = Inhibition of Staphylococcus aureus DNA gyrase
[5] = test system: Staphylococcus aureus; assay: Antibacterial activity against fluoroquinolone-sensitive Staphylococcus aureus 1146; type: functional
[6] = test system: Staphylococcus aureus; assay: Antibacterial activity against fluoroquinolone-resistant Staphylococcus aureus 1095; type: functional
[7] = Inhibition of Staphylococcus aureus DNA topoisomerase 4
[8] = test system: Staphylococcus aureus; assay: Antibacterial activity against Staphylococcus aureus; type: functional
[9] = test system: Streptococcus pyogenes; assay: Antibacterial activity against Streptococcus pyogenes; type: functional
[10] = Ratio of fAUC in fluoroquinolone-resistant Staphylococcus aureus infected mouse neutropenic thigh model to MIC for fluoroquinolone-resistant Staphylococcus aureus
[11] = Cmax in human; type: ADME
[12] = Stability assessed as increase in metabolism rate under in-vitro conditions; type: physicochemical
[13] = test system: Staphylococcus aureus; assay: Antibacterial activity against fluoroquinolone-resistant Staphylococcus aureus infected in mouse neutropenic thigh model assessed as static dose required for bacterial stasis; type: functional
[14] = Half life in rat at 2 mg/kg, iv; type: ADME, organism-based; details: in vivo
[15] = Volume of distribution at steady state in mouse at 10 mg/kg, iv; type: ADME, organism-based; details: in vivo, read-out: Vdss
[16] = Fraction unbound in rat plasma; type: ADME, cell-free
[17] = Fraction unbound in mouse plasma; type: ADME, cell-free
[18] = Clearance in mouse at 10 mg/kg, iv; type: ADME, organism-based; details: in vivo
[19] = Half life in mouse at 10 mg/kg, iv; type: ADME, organism-based; details: in vivo
[20] = Fraction unbound in human plasma; type: ADME, cell-free
[21] = Clearance in rat at 2 mg/kg, iv; type: ADME, organism-based; details: in vivo
[22] = Volume of distribution at steady state in rat at 2 mg/kg, iv; type: ADME, organism-based; details: in vivo, read-out: Vdss

Sequence of Voltage-gated inwardly rectifying potassium channel KCNH2 (Q12809 whole entry): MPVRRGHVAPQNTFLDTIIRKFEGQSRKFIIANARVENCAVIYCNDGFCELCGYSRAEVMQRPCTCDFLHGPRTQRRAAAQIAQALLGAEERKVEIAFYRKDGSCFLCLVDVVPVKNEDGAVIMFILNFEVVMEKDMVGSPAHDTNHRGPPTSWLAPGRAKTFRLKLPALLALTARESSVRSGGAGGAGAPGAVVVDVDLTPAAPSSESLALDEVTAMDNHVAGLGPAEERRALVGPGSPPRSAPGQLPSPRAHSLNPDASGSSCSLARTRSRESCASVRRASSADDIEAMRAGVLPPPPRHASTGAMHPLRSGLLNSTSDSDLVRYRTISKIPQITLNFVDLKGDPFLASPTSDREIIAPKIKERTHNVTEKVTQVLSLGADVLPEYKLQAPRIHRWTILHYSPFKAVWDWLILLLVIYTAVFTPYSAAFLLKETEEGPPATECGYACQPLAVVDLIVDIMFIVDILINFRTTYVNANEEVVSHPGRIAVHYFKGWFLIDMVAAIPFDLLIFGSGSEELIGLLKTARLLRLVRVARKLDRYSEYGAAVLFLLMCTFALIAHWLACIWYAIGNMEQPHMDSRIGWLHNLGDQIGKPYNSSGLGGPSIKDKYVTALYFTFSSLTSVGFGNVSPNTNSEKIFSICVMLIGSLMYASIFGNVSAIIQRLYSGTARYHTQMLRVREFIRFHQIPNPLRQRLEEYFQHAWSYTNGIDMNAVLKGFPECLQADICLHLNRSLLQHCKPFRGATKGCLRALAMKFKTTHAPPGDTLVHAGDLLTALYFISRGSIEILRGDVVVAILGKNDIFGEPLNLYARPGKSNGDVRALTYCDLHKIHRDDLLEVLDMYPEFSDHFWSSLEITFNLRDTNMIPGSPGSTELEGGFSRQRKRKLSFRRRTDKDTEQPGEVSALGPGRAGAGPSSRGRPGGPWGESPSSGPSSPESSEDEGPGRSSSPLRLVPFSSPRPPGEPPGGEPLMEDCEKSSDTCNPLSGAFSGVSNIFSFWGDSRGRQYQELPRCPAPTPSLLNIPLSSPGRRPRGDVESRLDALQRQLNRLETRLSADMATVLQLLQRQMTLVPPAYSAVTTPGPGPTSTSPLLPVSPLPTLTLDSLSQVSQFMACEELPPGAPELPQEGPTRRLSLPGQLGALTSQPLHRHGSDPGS

Compound: COc1ccc2ncc(F)c([C@@H](O)CC[C@@H]3CCN(C4CC(c5cccc(F)c5F)C4)C[C@@H]3C(=O)O)c2c1 (stereo partly drawn)
IC50 [1]: 25 µM | MIC [2]: 8 µg/mL (≈ 15.1 µM) | MIC [3]: 4 µg/mL (≈ 7.57 µM) | IC50 [4]: 0.78 µM | MIC [5]: ≤ 0.0625 µg/mL | MIC [6]: ≤ 0.0625 µg/mL | IC50 [7]: 7.5 µM

IC50 [4]: 2.42 µM | IC50 [7]: 84.6 µM
Compound: COc1ccc2nccc([C@@H](O)CC[C@@H]3CCN(CCSc4cccs4)C[C@@H]3C(=O)O)c2c1

Compound: COc1ccc2ncc(F)c([C@@H](O)CC[C@@H]3CCN(C4CC(c5cccc(F)c5)C4)C[C@@H]3C(=O)O)c2c1 (stereo partly drawn)
MIC [2]: 16 µg/mL (≈ 31.3 µM) | MIC [3]: 16 µg/mL (≈ 31.3 µM) | IC50 [4]: 0.78 µM | MIC90 [8]: 0.25 µg/mL (≈ 0.49 µM) | MIC90 [9]: 0.5 µg/mL (≈ 0.979 µM) | MIC [5]: ≤ 0.0625 µg/mL | MIC [6]: 0.25 µg/mL (≈ 0.49 µM) | IC50 [7]: 19 µM

Compound: COc1ccc2ncc(F)c([C@@H](O)CC[C@@H]3CCN(C4CC(c5ccccc5F)C4)C[C@@H]3C(=O)O)c2c1 (stereo partly drawn)
MIC [2]: 16 µg/mL (≈ 31.3 µM) | MIC [3]: 16 µg/mL (≈ 31.3 µM) | IC50 [4]: 0.78 µM | MIC90 [8]: 0.125 µg/mL (≈ 0.245 µM) | MIC90 [9]: 0.5 µg/mL (≈ 0.979 µM) | MIC [5]: ≤ 0.0625 µg/mL | MIC [6]: 0.125 µg/mL (≈ 0.245 µM) | IC50 [7]: 19 µM

Compound: COc1ccc2ncc(F)c([C@@H](O)CC[C@@H]3CCN(C4CC(c5cc(F)cc(F)c5)C4)C[C@@H]3C(=O)O)c2c1 (stereo partly drawn)
MIC [2]: 5.7 µg/mL (≈ 10.8 µM) | IC50 [4]: 1.2 µM | MIC90 [8]: 0.25 µg/mL (≈ 0.473 µM) | MIC90 [9]: 1 µg/mL (≈ 1.89 µM) | MIC [5]: 0.125 µg/mL (≈ 0.236 µM) | MIC [6]: 0.35 µg/mL (≈ 0.662 µM) | IC50 [7]: 6.25 µM

IC50 [4]: 3 µM | IC50 [7]: 9.62 µM
Compound: COc1ccc2nccc([C@@H](O)CC[C@@H]3CCN(C4CC(c5cc(F)ccc5F)C4)C[C@@H]3C(=O)O)c2c1 (stereo partly drawn)

Compound: O=c1ccc2ncc(=O)n3c2n1C[C@H]3CN1CCC(NCc2cc3c(cn2)OCCC3)CC1 [GEPOTIDACIN]
IC50 [1]: 1310 µM | MIC [2]: 8 to 32 µg/mL (≈ 17.8 to 71.3 µM) | Ratio [10]: 13.4 | Cmax [11]: 7000 to 13000 ng/mL

Compound: COc1ccc2ncc(F)c([C@@H](O)CC[C@@H]3CCN(C4CC(c5cc(F)cc(F)c5F)C4)C[C@@H]3C(=O)O)c2c1 (stereo partly drawn)
MIC [2]: 1 µg/mL (≈ 1.83 µM) | MIC [3]: 2 µg/mL (≈ 3.66 µM) | IC50 [4]: 1.56 µM | MIC [5]: ≤ 0.0625 µg/mL | MIC [6]: ≤ 0.0625 µg/mL | Stability [12]: Unstable | IC50 [7]: 4.7 µM

Compound: COc1ccc2nccc([C@@H](O)CC[C@@H]3CCN(C4CC(c5ccccc5)C4)C[C@@H]3C(=O)O)c2c1 (stereo partly drawn)
Activity [13]: 123.1 mg/kg/day | MIC [3]: ≥ 64 µg/mL | IC50 [4]: 1.19 µM | half-life [14]: 19.8 min | Vd [15]: 1.06 L/kg | MIC90 [8]: 0.25 to 1 µg/mL (≈ 0.527 to 2.11 µM) | MIC90 [9]: 1 to 2 µg/mL (≈ 2.11 to 4.21 µM) | fraction unbound [16]: 0.296 to 0.437 | fraction unbound [17]: 0.129 to 0.246 | clearance [18]: 36 mL/min/kg | half-life [19]: 20.4 min | fraction unbound [20]: 0.079 to 0.155 | IC50 [7]: 32.1 µM

Compound: COc1ccc2ncc(F)c([C@@H](O)CC[C@@H]3CCN(C4CC(c5ccc(F)s5)C4)C[C@@H]3C(=O)O)c2c1 (stereo partly drawn)
MIC [2]: 16 µg/mL (≈ 31 µM) | MIC [3]: 16 µg/mL (≈ 31 µM) | IC50 [4]: 0.78 µM | MIC90 [8]: 0.125 µg/mL (≈ 0.242 µM) | MIC90 [9]: 0.5 µg/mL (≈ 0.968 µM) | MIC [5]: ≤ 0.0625 µg/mL | MIC [6]: ≤ 0.0625 µg/mL | IC50 [7]: 19 µM

Compound: COc1ccc2ncc(F)c([C@@H](O)CC[C@@H]3CCN(C4CC(c5cccs5)C4)C[C@@H]3C(=O)O)c2c1 (stereo partly drawn)
MIC [2]: 11.3 µg/mL (≈ 22.7 µM) | MIC [3]: 16 µg/mL (≈ 32.1 µM) | IC50 [4]: 0.78 µM | MIC90 [8]: 0.125 µg/mL (≈ 0.251 µM) | MIC90 [9]: 0.5 µg/mL (≈ 1 µM) | MIC [5]: ≤ 0.0625 µg/mL | MIC [6]: 0.125 µg/mL (≈ 0.251 µM) | IC50 [7]: 9.4 µM

Compound: COc1ccc2ncc(F)c([C@@H](O)CC[C@@H]3CCN(C4CC(c5ccccc5)C4)C[C@@H]3C(=O)O)c2c1 (stereo partly drawn)
Activity [13]: 92.1 mg/kg/day | IC50 [1]: 22.3 µM | MIC [2]: 22.6 µg/mL (≈ 45.9 µM) | MIC [3]: 8 µg/mL (≈ 16.2 µM) | clearance [21]: 18.4 mL/min/kg | IC50 [4]: 1.15 µM | half-life [14]: 68.4 min | Vd [15]: 1.01 L/kg | Vd [22]: 1.82 L/kg | MIC90 [8]: 0.25 µg/mL (≈ 0.508 µM) | MIC90 [9]: 1 µg/mL (≈ 2.03 µM) | MIC [5]: 0.069 µg/mL (≈ 0.14 µM) | fraction unbound [16]: 0.277 to 0.334 | fraction unbound [17]: 0.15 to 0.158 | clearance [18]: 17.3 mL/min/kg | MIC [6]: 0.125 µg/mL (≈ 0.254 µM) | half-life [19]: 40.2 min | fraction unbound [20]: 0.122 to 0.211 | IC50 [7]: 15.9 µM
